Test results taken from patent US20250084062A1, “SUBSTITUTED QUINOLINE DERIVATIVE” (ASTELLAS PHARMA INC., priority 2021, published 2025).
Like-named read-outs stand apart in the source and are kept apart here.

Experiments:
[1] = tested on: acetylcholine receptor clustering; settings: NPL 16; cited from earlier work
[2] = tested on: MuSK-type myasthenia gravis animal model; experiment: Suppressing action on muscle weakness (grip strength) in MuSK type myasthenia gravis animal model (Test Example 2); format: in vivo, mouse; settings: grip strength test on 5th day, female DBA/2 mice, FIG. 1
Procedure: Test Example 2: Suppressing Action on Muscle Weakness in MuSK Type Myasthenia Gravis Animal Model
(§1) In a MuSK-type myasthenia gravis animal model, in which the production of autoantibodies against endogenous MuSK was induced by immunizing with human recombinant MuSK protein, decreased grip strength was evaluated as a pathological index.
(§2) A grip strength measuring device (GPM-100B; Melquest) was used to measure the grip strength of the extremities.
(§3) Repeated daily oral administration of the test compound in the MuSK-type myasthenia gravis animal model was performed as follows.
Seven point five micrograms of human MuSK recombinant protein (9810-MK; R&D systems) prepared with Freund's Complete Adjuvant (263810; Becton, Dickinson and Company) was intradermally administered to the tail of 8-week-old female DBA/2 mice (Charles River Laboratories Japan). Two weeks later, 7.5 micrograms of human MuSK recombinant protein prepared with Freund's Incomplete Adjuvant (263910; Becton, Dickinson and Company) was intradermally administered to the tail to induce myasthenia gravis mice. A week later, antibody titers against human MuSK in serum and grip strengths by the grip strength test were measured, and the mice were divided into groups of 6 mice each based on the antibody titer value and subjected to administration of the test compound. […]

[3] = tested on: MuSK-type myasthenia gravis animal model; experiment: Suppressing action on muscle weakness (grip strength) in MuSK type myasthenia gravis animal model (Test Example 3); format: in vivo, mouse; settings: grip strength test on 4th day, female DBA/2 mice, FIG. 2
Procedure: Test Example 3: Suppressing Action on Muscle Weakness in MuSK Type Myasthenia Gravis Animal Model
as §1, §2, §3
Seven point five micrograms of human MuSK recombinant protein (9810-MK; R&D systems) prepared with Freund's Complete Adjuvant (263810; Becton, Dickinson and Company) was intradermally administered to the tail of 8-week-old female DBA/2 mice (Charles River Laboratories Japan). Two weeks later, 7.5 micrograms of human MuSK recombinant protein prepared with Freund's Incomplete Adjuvant (263910; Becton, Dickinson and Company) was intradermally administered to the tail to induce myasthenia gravis mice. A week later, antibody titers against human MuSK in serum and grip strengths by the grip strength test were measured, and the mice were divided into groups of 6 mice each and subjected to administration of the test compound. The test compound was orally administered to the mice in the treatment group (3 and 10 mg/kg, suspended in 0.5% methylcellulose twice daily), and vehicle (0.5% methylcellulose) was used for the mice in the control group in place of the test compound. As a normal group, mice of the same age, same sex, and same strain were used that were not immunized with human recombinant MuSK protein. A grip strength test was performed after the administration in the morning of the 4th day.
The significance test between the normal group and the control group was performed by the Student-t test (*p<0.05). In addition, Dunnett's multiple comparison test was used between the control group and the test compound group (#p<0.05). A p-value less than 5% was regarded as significant in all the tests.

[4] = tested on: acetylcholine receptor clustering in C2Cl2 cells; experiment: Induction of acetylcholine receptor clustering in mouse myoblasts C2Cl2 cells (Test Example 1); format: cell-based; settings: Mus musculus; for Emax: Myoblast, read-out: Max; for EC50: Myotube
Procedure: Test Example 1: Evaluation of the Induction of Acetylcholine Receptor Clustering in Mouse Myoblasts C2Cl2 Cells
Induction of acetylcholine receptor clustering by the test compound was evaluated by using fluorescently-labeled Bungarotoxin to image and quantify the acetylcholine receptor cluster region induced by the differentiation of myoblasts into myotubes, and measure the change in area. The following test method was optimized with reference to various reports including FEBS let., 586, 3111-3116 (2012). When a concentration response curve is obtained by plotting the logarithmic concentration of the test compound on the horizontal axis and the ratio of the area of acetylcholine receptor cluster region on the vertical axis, the inducing action of the test compound can be determined.
A concentration response curve as an index indicating acetylcholine receptor clustering inducing action of the test compound in mouse C2Cl2 cells was prepared. C2Cl2 cells (ATCC Number: CRL-1772) were seeded at about 5000 cells/well on a 384-well plate (354667; Corning) coated with type I collagen and allowed to incubate at 37 degrees Celsius overnight in DMEM+20% FBS+1% penicillin/streptomycin medium. The following day, the medium was removed and replaced with a differentiation medium containing DMEM+2% FBS+1% penicillin/streptomycin, and allowed to incubate at 37 degrees Celsius for 4 days. The test compound was dissolved in DMSO and added to a differentiation medium containing 0.1 ng/ml Agrin (550-AG-100; R&D systems) such that the final concentration was […] (3-fold serial dilution) or 0.00017 to 3.3 μM (3-fold serial dilution). The final concentration of DMSO was 0.3%. After the 4 days of incubation, the differentiation medium was replaced with a differentiation medium containing the test compound and 0.1 ng/ml Agrin or a differentiation medium containing 0.1 ng/ml Agrin or 10 ng/ml Agrin alone, and allowed to incubate at 37 degrees Celsius overnight. The next day, 10 μl of DMEM containing Bungarotoxin-Alexa488 (B13422; Life technologies) was added to the differentiation medium containing test compound and Agrin and Agrin alone so that the final concentration of Bungarotoxin-Alexa488 was 1 μg/ml, and was allowed to incubate at 37 degrees Celsius for 1 hour to label the acetylcholine receptor. After removing all the medium, 4% PFA was added to each well and allowed to incubate at room temperature for 10 minutes, then washed with PBS, and allowed to incubate at room temperature for 30 minutes in PBS containing 5% goat serum and 0.3% Triton X-100. After removing the PBS solution, PBS-Tween20 (28352; Thermo fisher scientific) containing Anti-Myosin Heavy Chain eFluor (registered trademark) 660 (50-6503-82; eBioscience) and DAPI (340-07971; Dojindo) was added to each well and allowed to incubate at room temperature for 1 hour to label the myotubes and nuclei. After washing three times with PBS-Tween20, the fluorescence was imaged using IN Cell Analyzer 6000 (GE Healthcare). […] The response of control group (1) was regarded as 0% and the response of the control group (2) was regarded as 100%. For quantification, the signal of only the acetylcholine receptor present in the myotube was used to eliminate non-specific fluorescence.
EC50 and Max value were used as indicators of activity in order to quantitatively evaluate the inducing action of the test compound on acetylcholine receptor clustering. EC50 value is a test compound concentration which indicates 50% in terms of the area of acetylcholine receptor cluster region compared to that of 10 ng/ml Agrin (regarded as 100%) in the concentration response curve. EC50 was calculated by nonlinear regression analysis from the concentration response curve using the area of the cluster region of the test compound as an index. Max value is the maximum response value. […]

[5] = tested on: acetylcholine receptor clustering; settings: reported in NPL 15; cited from earlier work
[6] = maximum response, area of acetylcholine receptor cluster region vs 10 ng/ml Agrin (100%), 0.1 ng/ml Agrin = 0%
[7] = C2Cl2 myotubes, with 0.1 ng/ml Agrin, concentration giving 50% of cluster area of 10 ng/ml Agrin (100%), read-out: EC50

| SMILES | Emax [4, 6] | EC50 [4, 7] | further results |
| --- | --- | --- | --- |
| C=C1CC[C@H](O)C/C1=C/C=C1\CCC[C@]2(C)[C@@H]([C@H](C)CCCC(C)C)CC[C@@H]12 | – | – | inducing action on acetylcholine receptor clustering in combination with Agrin [1]: promotes an inducing action on acetylcholine receptor clustering |
| Cc1cc(-c2c(F)cc(S(=O)(=O)N3CC[C@H](F)C3)cc2F)nc2cc(C(=O)[O-])ccc12.[Na+] [Example 2, sodium 2-{2,6-difluoro-4-[(3S)-3-fluoropyrrolidine-1-sulfonyl]phenyl}-4-methylquinoline-7-carboxylate] | – | – | suppressing action on grip strength decrease ([2]; 10 mg/kg oral twice daily): suppressing action on grip strength decrease; suppressing action on grip strength decrease ([2]; 30 mg/kg oral twice daily): suppressing action on grip strength decrease |
| Cc1c(F)c(-c2c(F)cc(S(=O)(=O)N3CCC(F)CC3)cc2F)nc2cc(C(=O)O)ccc12 [Example 18, 2-[2,6-difluoro-4-(4-fluoropiperidine-1-sulfonyl)phenyl]-3-fluoro-4-methylquinoline-7-carboxylic acid] | 99.8% | 3 nM | suppressing action on grip strength decrease ([3]; 3 mg/kg oral twice daily): suppressing action on grip strength decrease; suppressing action on grip strength decrease ([3]; 10 mg/kg oral twice daily): suppressing action on grip strength decrease |
| Cc1cc(-c2c(F)cc(S(=O)(=O)N3CCC(F)CC3)cc2F)nc2cc(C(=O)O)ccc12 [Example 19, 2-[2,6-difluoro-4-(4-fluoropiperidine-1-sulfonyl)phenyl]-4-methylquinoline-7-carboxylic acid] | 108% | 16 nM | suppressing action on grip strength decrease ([3]; 10 mg/kg oral twice daily): suppressing action on grip strength decrease |
| Cc1cc(-c2c(F)cc(S(=O)(=O)N3CC[C@H](F)C3)cc2F)nc2cc(C(=O)NC3CCNC3)ccc12 (some centres unmarked) [Example 53] | 77.9% | 96 nM | – |
| Cc1c(F)c(-c2c(F)cc(S(=O)(=O)N3CC[C@H](F)C3)cc2F)nc2cc(C(=O)NC(C)(C)CC(=O)O)ccc12 [Example 54] | 60.8% | 1490 nM | – |
| Cc1cc(-c2ccc(S(=O)(=O)N3CC[C@H](F)C3)cc2F)nc2c(F)c(N3CCNCC3=O)ccc12 [Example 55] | 38.9% | 7160 nM | – |
| Cc1c(F)c(-c2c(F)cc(S(=O)(=O)N3CC[C@H](F)C3)cc2F)nc2cc(CCN)ccc12 [Example 56] | 97% | 53 nM | – |
| Cc1c(F)c(-c2c(F)cc(S(=O)(=O)N3CC[C@H](F)C3)cc2F)nc2cc(C3CCNCC3)ccc12 [Example 57] | 87% | 89 nM | – |
| Cc1cc(-c2c(F)cc(S(=O)(=O)N3CCC(F)CC3)cc2F)nc2cc(C(=O)NCCCN)ccc12 [Example 58] | 89.6% | 33 nM | – |
| CNCCN(C)C(=O)c1ccc2c(C)cc(-c3c(F)cc(S(=O)(=O)N4CC[C@H](F)C4)cc3F)nc2c1 [Example 59] | 95.8% | 49 nM | – |
| CNCCNC(=O)c1ccc2c(C)cc(-c3c(F)cc(S(=O)(=O)N4CCC(F)CC4)cc3F)nc2n1 [Example 60] | 99.2% | 11 nM | – |
| CNCCNC(=O)c1ccc2c(C)cc(-c3c(F)cc(S(=O)(=O)N4CC[C@H](F)C4)cc3F)nc2n1 [Example 61] | 92.4% | 26 nM | – |
| Cc1cc(-c2c(F)cc(S(=O)(=O)N3CC[C@H](F)C3)cc2F)nc2nc(C3=CCNCC3)ccc12 [Example 62] | – | – | Emax [4]: 86.4%; EC50 [4]: 1 nM |
| Cc1cc(-c2ccc(S(=O)(=O)N3CCCCC3)cc2)nc2cc(OCCO)ccc12 [Example 63] | 104% | 165 nM | – |
| Cc1cc(-c2ccc(S(=O)(=O)N3CC[C@H](F)C3)cc2F)nc2cc(OC[C@@H](O)CO)ccc12 [Example 64] | 107% | 24 nM | – |
| Cc1cc(-c2ccc(S(=O)(=O)N3CC[C@H](F)C3)cc2F)nc2cc(C(=O)NCC3(O)CNC3)ccc12 [Example 65] | 84% | 53 nM | – |
| Cc1cc(-c2c(F)cc(S(=O)(=O)N3CC[C@H](F)C3)cc2F)cc2nc(N3CCNCC3)ccc12 [Example 66] | 88.4% | 10 nM | – |
| Cc1cc(-c2c(F)cc(S(=O)(=O)N3CC[C@H](F)C3)cc2F)cc2cc(C(=O)O)ccc12 [Example 67] | – | – | Emax [4]: 94.3%; EC50 [4]: 15 nM |
| CC(C)(C)NCC(O)c1ccc(O)c(CO)c1 (centres unmarked) [salbutamol] | – | – | inducing action on acetylcholine receptor clustering [5]: has an inducing action on acetylcholine receptor clustering |
